Experimental findings from BindingDB's records for doi:10.1016/j.bioorg.2017.01.006 (Jaipur National University, 2017) are described below.

In general, IC50 refers to the concentration at which inhibition is half-maximal. Low values mean inhibition by little substance, high ones a need for much substance.

In this test the target is Gag-Pol polyprotein (Human immunodeficiency virus type 1 group M subtype B (isolate HXB2), UniProt P04585). The experiment in a line: RT Assay. The conditions noted are these: 37 °C. As to the method:
To a lysis buffer (20 μl), 4-6 ng recombinant HIV-1-RT was added in separate reaction tubes. Lysis buffer without HIV-1-RT was used as a negative control. Standards and test compound RT inhibitor (10 μg) were diluted with lysis buffer. This mixture was incubated for 1 h at 37 °C. For the number of micro plate modules to be used, enough foil bags were opened and micro plate modules were put into the frame in the correct orientation. The above samples were transferred to wells of microplate module. After addition it was covered with cover foil and incubated at 37 °C for 1 h. Solution was removed and rinsed five times with 250 μl of washing buffer per well for 30 s to each well. Then washing buffer was removed carefully. 200 μl of anti-DIG-POD working dilution was added to individual well and covered with cover foil and incubated at 37 °C for 1 h. Anti-DIG-POD working dilution solution was completely removed. Microplate module were washed five times for 30 s with washing buffer 250 μl and removed. 200 μl of ABTS substrate solution was added to individual well and incubated between 15 °C and 25 °C till (15−30 min) green color was obtained.
For `CC1=C(C(=O)NC(=O)CN2C(=O)C(=O)c3ccccc32)C(c2ccc(Cl)cc2)NC(=O)N1` (stereo not given) [4-(4-Chlorophenyl)-N-(2-(2,3-dioxoindolin-1-yl)acetyl)-6-methyl-2-oxo-1,2,3,4-tetrahydro pyrimidine-5-carboxamide (9h)], the IC50 was > 100 nM. As to `CC1=C(C(=O)NC(=O)CN2C(=O)C(=O)c3ccccc32)C(C)NC(=O)N1` (stereo not given) [N-(2-(2,3-Dioxoindolin-1-yl)acetyl)-4,6-dimethyl-2-oxo-1,2,3,4-tetrahydropyrimidine-5-carboxamide (9c)], the IC50 amounted to 64 nM.

Molecule `CCC1NC(=O)NC(C)=C1C(=O)NC(=O)CN1C(=O)C(=O)c2ccccc21` (stereo not given) [N-(2-(2,3-Dioxoindolin-1-yl)acetyl)-4-ethyl-6-methyl-2-oxo-1,2,3,4-tetrahydropyrimidine-5-carboxamide (9d)] registered an IC50 of 67 nM. The result for `CCCC1NC(=O)NC(C)=C1C(=O)NC(=O)CN1C(=O)C(=O)c2ccccc21` (stereo not given) [N-(2-(2,3-Dioxoindolin-1-yl)acetyl)-6-methyl-2-oxo-4-propyl-1,2,3,4-tetrahydropyrimidine-5-carboxamide (9e)] reads > 100 nM; that for `Cc1cc(/C=C/C#N)cc(C)c1Nc1ccnc(Nc2ccc(C#N)cc2)n1` [Rilpivirine], 68 nM.
